The values below come from US9675614B2, “PRMT5 inhibitors and uses thereof” (Epizyme, Inc., priority 2012, dated 2017).

Molecules are shown by their SMILES.

The target in this test is PRMT5/MEP50 (Homo sapiens (Human), UniProt O14744). Briefly: PRMT5 Biochemical Assay (PRMT5/MEP50 enzyme assay on peptide substrate, 3H-SAM Flashplate). To be noted: PRMT5/MEP50 biochemical assay; read-out: Biochemical IC50. From the text: S-adenosylmethionine (SAM), S-adenosylhomocysteine (SAH), bicine, KCl, Tween20, dimethylsulfoxide (DMSO), bovine skin gelatin (BSG), and Tris(2-carboxyethyl)phosphine hydrochloride solution (TCEP) were purchased from Sigma-Aldrich at the highest level of purity possible. ^3H-SAM was purchase from American Radiolabeled Chemicals with a specific activity of 80 Ci/mmol. 384-well streptavidin Flashplates were purchased from PerkinElmer.
Sequence of PRMT5/MEP50 (O14744 other isoform, or with tags, fused parts or gaps): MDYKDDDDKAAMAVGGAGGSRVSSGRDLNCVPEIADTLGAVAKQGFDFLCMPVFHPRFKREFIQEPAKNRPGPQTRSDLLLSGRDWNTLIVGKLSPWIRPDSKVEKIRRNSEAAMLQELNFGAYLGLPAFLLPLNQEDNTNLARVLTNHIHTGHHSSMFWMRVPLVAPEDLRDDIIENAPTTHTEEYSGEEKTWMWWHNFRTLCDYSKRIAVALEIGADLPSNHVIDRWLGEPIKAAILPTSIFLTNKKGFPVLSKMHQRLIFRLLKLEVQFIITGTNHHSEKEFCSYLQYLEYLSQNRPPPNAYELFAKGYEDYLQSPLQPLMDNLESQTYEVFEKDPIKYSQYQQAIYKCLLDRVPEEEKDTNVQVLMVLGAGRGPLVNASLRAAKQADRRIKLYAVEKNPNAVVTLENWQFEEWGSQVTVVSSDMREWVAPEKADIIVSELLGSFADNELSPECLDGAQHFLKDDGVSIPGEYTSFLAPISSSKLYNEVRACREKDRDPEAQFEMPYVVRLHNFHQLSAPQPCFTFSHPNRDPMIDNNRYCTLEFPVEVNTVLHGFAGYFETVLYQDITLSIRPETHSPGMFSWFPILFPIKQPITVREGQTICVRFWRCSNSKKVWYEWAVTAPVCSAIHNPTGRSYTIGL
Sequence of PRMT5/MEP50 (Q9BQA1 other isoform, or with tags, fused parts or gaps partner): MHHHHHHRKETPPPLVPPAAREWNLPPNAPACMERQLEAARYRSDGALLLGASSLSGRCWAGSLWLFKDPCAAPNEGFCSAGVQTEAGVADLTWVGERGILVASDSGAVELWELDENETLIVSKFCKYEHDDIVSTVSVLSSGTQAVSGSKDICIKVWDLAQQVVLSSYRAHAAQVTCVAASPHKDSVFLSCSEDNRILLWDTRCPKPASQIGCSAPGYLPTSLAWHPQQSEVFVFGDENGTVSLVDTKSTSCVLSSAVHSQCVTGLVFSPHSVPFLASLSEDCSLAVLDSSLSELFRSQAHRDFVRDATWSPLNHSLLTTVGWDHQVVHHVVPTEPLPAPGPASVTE
Peptide representative of human histone H4 residues 1-15 was synthesized with a C-terminal linker-affinity tag motif and a C-terminal amide cap by 21st Century Biochemicals. […] The sequence was Ac-[…][K-Biot]amide (SEQ ID NO.:3).
Full-length human MEP50 (NM_024102) clone was amplified from a human testis cDNA library incorporating a 5′ sequence encoding a 6-histidine tag (MHHHHHH) (SEQ ID NO.:5) fused directly to Arg 2 of MEP50. The amplified genes were subcloned into pENTR/D/TEV (Life Technologies) and subsequently transferred by Gateway™ attL×attR recombination to pDEST8 baculvirus expression vector (Life Technologies).
Recombinant baculovirus and Baculovirus-Infected Insect Cells (BIIC) were generated according to Bac-to-Bac kit instructions (Life Technologies) and Wasilko, 2006, respectively. Protein over-expression was accomplished by infecting exponentially growing Spodoptera frugiperda (SF9) cell culture at 1.2×10^6 cell/ml with a 5000 fold dilution of BIIC stock. Infections were carried out at 27° C. for 72 hours, harvested by centrifugation, and stored at −80° C. for purification.
Flag-PRMT5/6His-MeP50 was eluted with 300 mM Imidazole in the same buffer. […] Reference: Wasilko, D. J. and S. E. Lee: “TIPS: titerless infected-cells preservation and scale-up” Bioprocess J., 5 (2006), pp. 29-32.
General Procedure for PRMT5/MEP50 Enzyme Assays on Peptide Substrates.
The assays were all performed in a buffer consisting of 20 mM Bicine (pH=7.6), 1 mM TCEP, 0.005% BSG, and 0.002% Tween20, prepared on the day of use. Compounds in 100% DMSO (1 ul) were spotted into a polypropylene 384-well V-bottom plates (Greiner) using a Platemate Plus outfitted with a 384-channel head (Thermo Scientific). DMSO (1 ul) was added to Columns 11, 12, 23, 24, rows A-H for the maximum signal control and 1 ul of SAH, a known product and inhibitor of PRMT5/MEP50, was added to columns 11, 12, 23, 24, rows I-P for the minimum signal control. A cocktail (40 ul) containing the PRMT5/MEP50 enzyme and the peptide was added by Multidrop Combi (Thermo-Fisher). The compounds were allowed to incubate with PRMT5/MEP50 for 30 min at 25 degrees Celsius, then a cocktail (10 ul) containing ^3H-SAM was added to initiate the reaction (final volume=51 ul). The final concentrations of the components were as follows: PRMT5/MEP50 was 4 nM, ^3H-SAM was 75 nM, peptide was 40 nM, SAH in the minimum signal control wells was 100 uM, and the DMSO concentration was 1%. The assays were stopped by the addition of non-radioactive SAM (10 ul) to a final concentration of 600 uM, which dilutes the ^3H-SAM to a level where its incorporation into the peptide substrate is no longer detectable. 50 ul of the reaction in the 384-well polypropylene plate was then transferred to a 384-well Flashplate and the biotinylated peptides were allowed to bind to the streptavidin surface for at least 1 hour before being washed three times with 0.1% Tween20 in a Biotek ELx405 plate washer. The plates were then read in a PerkinElmer TopCount plate reader to measure the quantity of ^3H-labeled peptide bound to the Flashplate surface, measured as disintegrations per minute (dpm) or alternatively, referred to as counts per minute (cpm).
[formula] Where dpm=disintegrations per minute, cmpd=signal in assay well, and min and max are the respective minimum and maximum signal controls.
[formula] Where top and bottom are the normally allowed to float, but may be fixed at 100 or 0 respectively in a 3-parameter fit.
For the molecule `CNC(=O)CNCc1cccc(C(=O)NCC(O)CN2CCc3ccccc3C2)c1` (stereo not drawn) [Compound 117], the IC50 lay in the range of 0.101 to 1 µM. Next, `CN(C)C(=O)CNCc1cccc(C(=O)NCC(O)CN2CCc3ccccc3C2)c1` (stereo not drawn) [Compound 118]: less than 0.1 µM; `O=C(NCC(O)CN1CCc2ccccc2C1)c1cccc(OC2CCNC2)c1` (stereo not drawn) [Compound 119]: less than 0.1 µM. As to `CC(=O)N1CCC(Nc2cccc(C(=O)NCC(O)CN3CCc4ccccc4C3)c2)C1` (stereo not drawn) [Compound 121], the concentration for half-maximal inhibition (IC50) is less than 0.1 µM. Next, `CS(=O)(=O)N1CCC(Nc2cccc(C(=O)NCC(O)CN3CCc4ccccc4C3)c2)C1` (stereo not drawn) [Compound 122]: less than 0.1 µM.

`CN1CCC(Nc2cccc(C(=O)NCC(O)CN3CCc4ccccc4C3)c2)CC1` (stereo not drawn) [Compound 123]: the half-maximal inhibitory concentration (IC50) was less than 0.1 µM. Next, `CC(=O)N1CCC(Nc2cccc(C(=O)NCC(O)CN3CCc4ccccc4C3)c2)CC1` (stereo not drawn) [Compound 124]: less than 0.1 µM. `CS(=O)(=O)N1CCC(Nc2cccc(C(=O)NCC(O)CN3CCc4ccccc4C3)c2)CC1` (stereo not drawn) [Compound 125]: the IC50 was less than 0.1 µM. Next, `O=C(NCC(O)CN1CCc2ccccc2C1)c1cccc(NC2CCN(CC(F)(F)F)CC2)c1` (stereo not drawn) [Compound 126]: less than 0.1 µM; `CC(=O)N1CCC(Nc2ccc(C(=O)NCC(O)CN3CCc4ccccc4C3)cc2)CC1` (stereo not drawn) [Compound 127]: less than 0.1 µM.

On to `O=C(NCC(O)CN1CCc2ccccc2C1)c1ccc(NC2CCN(CC(F)(F)F)CC2)cc1` (stereo not drawn) [Compound 128], for which the IC50 is less than 0.1 µM.

As to `O=C(NCC(O)CN1CCc2ccccc2C1)c1ccc(NC2CCOC2)cc1` (stereo not drawn) [Compound 129], the IC50 was less than 0.1 µM. Under `O=C(NCC(O)CN1CCc2ccccc2C1)c1cccc(-n2cncn2)c1` (stereo not drawn) [Compound 130] stands less than 0.1 µM.

For the molecule `CN1CCC(N(C)c2cccc(C(=O)NCC(O)CN3CCc4ccccc4C3)c2)CC1` (stereo not drawn) [Compound 131], the IC50 was less than 0.1 µM.

As for `CN1CCC(N(C)c2cccc(C(=O)NCC(O)CN3CCc4ccccc4C3)c2)C1` (stereo not drawn) [Compound 132], the 50% inhibitory concentration (IC50) was less than 0.1 µM. `O=C(NCC(O)CN1CCc2ccccc2C1)c1cccc(OCCN2CCOCC2)c1` (stereo not drawn) [Compound 133]: the concentration for half-maximal inhibition (IC50) is less than 0.1 µM. Next, `CC(C)N1CCC(Oc2cccc(C(=O)NCC(O)CN3CCc4ccccc4C3)c2)C1` (stereo not drawn) [Compound 135]: less than 0.1 µM. For `CC(=O)N1CCC(Oc2cccc(C(=O)NCC(O)CN3CCc4ccccc4C3)c2)C1` (stereo not drawn) [Compound 136], the IC50 was less than 0.1 µM. Take `O=C(NCC(O)CN1CCc2ccccc2C1)c1cccc(OC2CCN(CC(F)(F)F)C2)c1` (stereo not drawn) [Compound 137]: the IC50 is less than 0.1 µM. As for `O=C(NCC(O)CN1CCc2ccccc2C1)c1ccc(NC2CCNCC2)cc1` (stereo not drawn) [Compound 138], the half-inhibitory concentration (IC50) was less than 0.1 µM.

With `CN1CCC(Nc2ccc(C(=O)NCC(O)CN3CCc4ccccc4C3)cc2)CC1` (stereo not drawn) [Compound 139], the half-inhibitory concentration (IC50) was less than 0.1 µM. Under `CC(C)N1CCC(Nc2ccc(C(=O)NCC(O)CN3CCc4ccccc4C3)cc2)CC1` (stereo not drawn) [Compound 140] stands less than 0.1 µM; under `CS(=O)(=O)N1CCC(Nc2ccc(C(=O)NCC(O)CN3CCc4ccccc4C3)cc2)CC1` (stereo not drawn) [Compound 141], less than 0.1 µM. For the molecule `O=C(NCC(O)CN1CCc2ccccc2C1)c1ccc(CN2CCNCC2)cc1` (stereo not drawn) [Compound 143], the IC50 was less than 0.1 µM. Next, `CN(c1ccc(C(=O)NCC(O)CN2CCc3ccccc3C2)cc1)C1CCOC1` (stereo not drawn) [Compound 144]: less than 0.1 µM; `O=C(NCC(O)CN1CCc2ccccc2C1)c1ccc(CN2CCOCC2)cc1` (stereo not drawn) [Compound 145]: less than 0.1 µM; `COCCCOc1ccc(C(=O)NCC(O)CN2CCc3ccccc3C2)cc1` (stereo not drawn) [Compound 146]: less than 0.1 µM.

Consider `NCCN1CCN(Cc2cccc(C(=O)NCC(O)CN3CCc4ccccc4C3)c2)CC1` (stereo not drawn) [Compound 147], for which the half-inhibitory concentration (IC50) was less than 0.1 µM. Under `O=C(NCC(O)CN1CCc2ccccc2C1)c1ccn[nH]1` (stereo not drawn) [Compound 148] stands 0.101 to 1 µM; under `Cn1ccc(C(=O)NCC(O)CN2CCc3ccccc3C2)n1` (stereo not drawn) [Compound 149], 0.101 to 1 µM.
